Here are results for four compounds from publication PMC10974945, “Targeting MutT Homolog 1 (MTH1) for Breast Cancer Suppression by Using a Novel MTH1 Inhibitor MA−24 with Tumor-Selective Toxicity” (Pharmaceuticals, 2024).

Like-named read-outs stand apart in the source and are kept apart here.

One data set deals with 4T1 breast cancer tumor. Kind of data set: 4T1 breast cancer tumor model in Balb/c mice. Conditions: for Ki67 expression / tumor cell proliferation in tumors / body weight compared to the control group: MA−24 60 mg/kg; for body weight compared to the control group: TH287 200 mg/kg i.p. every three days. Here is the method:
All animal experiments were carried out in accordance with a protocol approved by the Animal Ethics Committee of the China Pharmaceutical University. Female BALB/C mice were given food and water ad libitum. Approximately 7-week-old mice were injected subcutaneously with 2 × 10^5 4T1 cells in the left flank. When the mean tumor size reached 30~50 mm^3, vehicle (composed with 1% DMSO, 10% ethanol, 10% Chremophor EL, and 10% Tween-80, diluted with PBS), MTH1 inhibitor (MA−24 at 60 mg/kg or TH287 at 200 mg/kg), or 5-FU (30 mg/kg) was administered intraperitoneally every three days. Tumor size and body weights were measured twice weekly starting on the first day of treatment. Moreover, to minimize animal suffering, euthanasia by cervical dislocation was performed when the maximum diameter of the tumors exceeded 1 cm.

In data set [1] the target is T1, MTH1 (Homo sapiens, UniProt P36639). Kind of data set: MTH1 enzymatic inhibition, malachite green colorimetric assay. Format: biochemical. The protocol:
MTH1, inorganic pyrophosphatase, and dGTP (Thermo Fisher Scientific, Waltham, MA, USA) were diluted in assay buffer containing 100 mM Tris-acetate at pH 8.0, 40 mM NaCl, 10 mM Mg-acetate, 0.005% Tween 20, and 1 mM DTT. Briefly, serial dilutions of compounds were dissolved in assay buffer; meanwhile, MTH1 was diluted to 4 μg/mL, and then these two solutions were mixed and filled with buffer to 186 µL. After 15 min incubation at 25 °C, 10 µL dGTP (final concentration […]) and 4 µL inorganic pyrophosphatase (final concentration 0.2 U/mL) were added to start the reaction. The reaction mixture was incubated with shaking for 45 min at 25°C. Finally, 50 µL of malachite green assay reagent was added and incubated with shaking for 15 min at 25 °C. The absorbance of the assay plate was read at 630 nm using a Multiskan GO Microplate Spectrophotometer (Thermo Fisher Scientific, Waltham, MA, USA) and IC50 values were calculated using GraphPad Prism 9.5.1 Software.

For data set [2], the system named is MCF−7 cells. Kind of data set: MTT cell viability/proliferation assay, MCF−7. The note with it: Homo sapiens; for IC50: read-out: IC50 against MCF−7 cell proliferation (mean ± SD); for inhibition at 200 µM: compound concentration 200 μM, read-out: Inhibition (%) (Mean ± SD) of MCF−7 cell proliferation. Format: cell-based. The protocol:
(§1) Human breast cancer cell lines (MCF-7: ER+, PR+, HER2-, EGFR+, MB-MDA-MB-231: […] All cells were cultured in suitable medium supplemented with 10% fetal bovine serum (FBS; […] Biotechnology Co., Ltd., Hangzhou, China), 100 U/mL penicillin, and 100 μg/mL streptomycin (Invitrogen, Carlsbad, CA, USA) at 37 °C in 5% CO2. MCF-7, MB-MDA-MB-231, HEK-293F, and HUVEC were grown in Dulbecco's modified Eagle's medium (DMEM; […] Subsequently, cells were treated with compound or vehicle (maximum 0.3% DMSO). After 48 h, cells were treated with MTT; the absorbance of the assay plate was read at 490 nm using a Multiskan GO Microplate Spectrophotometer (Thermo Fisher Scientific, Waltham, MA, USA).

A further data set relates to MDA-MB-231 cells. Kind of data set: MTT cell viability/proliferation assay, MDA-MB-231. Format: cell-based. The note with it: Homo sapiens, read-out: IC50 on MDA-MB-231 proliferation (mean ± SD). Here is the method:
as §1

The test system of the next data set is 4T1 cells. Kind of data set: MTT cell viability/proliferation assay, 4T1. The note with it: Mus musculus, read-out: IC50 on 4T1 proliferation (mean ± SD). Format: cell-based, murine. The protocol:
as §1

For another data set, the system named is HUVEC cells. The data set is described as follows: MTT cell viability/proliferation assay, HUVEC (immortalized). Format: cell-based. The note with it: Homo sapiens, 48 h, read-out: IC50 on HUVEC proliferation (mean ± SD). Here is the method: as §1
In the next data set the test system is HEK-293F cells. The data set is described as follows: MTT cell viability/proliferation assay, HEK-293F (immortalized). Format: cell-based. The note with it: HEK293F, 48 h, read-out: IC50 on HEK-293F proliferation (mean ± SD). Here is the method: as §1
The test system of a further data set is CHO cells. Kind of data set: MTT cell viability/proliferation assay, CHO (immortalized). Format: cell-based. The note with it: Cricetulus griseus, 48 h, read-out: IC50 on CHO proliferation (mean ± SD). Here is the method: as §1
Data set [3] addresses T1, MTH1. The data set is described as follows: Kinetic analysis of MTH1 inhibition (reciprocal plot). Conditions: consistent 1/Vmax. Format: biochemical.
For data set [4], the target named is T1, MTH1. The data set is described as follows: Target engagement by cellular thermal shift assay (CETSA) in MCF−7 cells. Format: cell-based. Conditions: 50 μM, 4.5 h, 42 to 75 °C. The protocol: MCF−7 cells cultured in 6-well plates for 24 h were exposed to vehicle (0.5% DMSO) or 50 μM TH287 or MA−24 for 4.5 h. After trypsinization cells were detached, spun down and resuspended in PBS. Eight equational cells were heated for 3 min from 42 to 75 °C, and then lysed using RIPA lysis buffer. Western blot analysis was used to analyze the amounts of stabilized MTH1 using the MTH1 antibody.

For data set [5], the system named is MCF−7 cells. Kind of data set: Alkaline comet assay in MCF−7 cells. Format: cell-based, human. The note with it: 10 μM, 2 days. Here is the method: MCF−7 cells (300,000 cells) were plated in 6-well plates and incubated for 24 h at 37 °C and 5% CO2. Subsequently, cells were treated with a compound (10 μM MA−24 and TH287) or vehicle (0.1% DMSO) for 2 days or with 150 μM for 10 min on ice. Cells were harvested as above. After washing twice with PBS, cells were re-suspended in PBS. Then, the 30 μL cell suspension was mixed with 150 µL 1.2% low-melting agarose that was maintained at 37 °C. The mixture was layered onto pre-warmed (37 °C) agarose-coated glass slides. The slides were kept on ice for 10 min and incubated in lysis buffer (10 mM Tris pH 7.7, 2.5 M NaCl, 0.1 M EDTA, 1% DMSO, and 1% Triton X-100) at 4 °C overnight in the dark. Slides were washed twice with enzyme reaction buffer (40 mM HEPES pH 8.0, 0.1 M KCl, 0.5 mM EDTA, and 0.2 mg/mL BSA) and incubated with Fpg […] (8 U/mL, New England Biolabs, Shanghai, China) at 37 °C for 45 min. Slides were washed once with enzyme reaction buffer and incubated in alkaline electrophoresis buffer (50 mM NaOH, 1 mM EDTA, and 1% DMSO) for 20 min. […] Images were acquired with a fluorescence microscope (Olympus Corporation, Tokyo, Japan) and quantified using Comet Score software, Version 1.5. At least 100 comets per sample were analyzed. Tail moment is calculated as the percentage of DNA in the tail multiplied by the tail length.

Data set [6] deals with MCF−7 cells. Kind of data set: Western blot of apoptosis and p38 MAPK proteins in MCF−7 cells. Conditions: for expression of p38: high concentrations. Format: cell-based, human. The source says:
Total protein was obtained using RIPA lysis buffer (Beyotime Biotechnology, Shanghai, China) supplemented with phenylmethanesulfonyl fluoride (Beyotime Biotechnology, Shanghai, China), separated by SDS-PAGE, and transferred to the PVDF membrane by electroblotting (Bio-Rad, Hercules, CA, USA) followed by blocking with 5% milk in TBST. MTH1 antibody (Cat.No.ab200832, Abcam, Eugene, OR, USA), β-actin antibody (Cat.No.ab8227; Abcam, Eugene, OR, USA), ccaspae-3 antibody (Cat.No.14220, CST, Boston, USA), cleaved caspase-3 antibody (Asp175) (Cat.No.9664, CST, Boston, MA, USA), cleaved PARP antibody (Asp214) (Cat.No.95696, CST, Boston, MA, USA), p38 (Cat.No.9212, CST, Boston, MA, USA), and phospho-p38 MAPK (Thr180/Tyr182) (Cat.No.9211, CST, Boston, MA, USA) were used at a dilution of 1:1000–1:5000. Upon addition of primary and HRP-conjugated secondary antibodies, blots were detected using an ECL substrate (Thermo Fisher Scientific, Waltham, MA, USA) and the Tanon 5200 Chemiluminescent Imaging System (Tanon, Shanghai, China).

On the set-up of data set [7]: method as in PMID 25459754. Conditions: intraperitoneal injection, cited from earlier work.
On the set-up of data set [8]: method as in PMID 24695224. Conditions: in vitro studies; cited from earlier work.
Setting [9] is: 5-FU 30 mg/kg i.p. every three days, 4T1 tumor.
Where [10] appears, read: malachite green staining assay, dGTP substrate, read-out: IC50 to MTH1 (mean ± SD).

As for `O=c1[nH]cc(F)c(=O)[nH]1` [5-FU, 5-fluorouracil], in the data set with 4T1 breast cancer tumor (30 mg/kg intraperitoneally every three days, 4T1 tumor), the “tumor growth inhibition rate” value worked out at 81.9%. In addition, the “toxicity: mouse mortality” value in the data set on 4T1 breast cancer tumor (5-FU 30 mg/kg i.p. every three days) is reported as “mouse mortality starting from the 16th day of treatment”. Also, the “Ki67 expression / tumor cell proliferation in tumors” value with 4T1 breast cancer tumor (setting [9]) is listed as “inhibitory effect on tumor cell proliferation”.
In the case of `CNc1cc(NCCc2ccc(C)cc2)nc(N)n1` [MA−24], the IC50 at MTH1 [1] (setting [10]) is 0.0104 ± 0.00028 µM; in the data set with MCF−7 cells [2] (MCF7, MTT assay, 48 h) it was 23.9 ± 0.95 µM; in the data set on MDA-MB-231 cells (MDA-MB-231, MTT assay, 48 h, cancer cell line) it was 48.4 ± 0.68 µM; in the data set with 4T1 cells (4T1, MTT assay, 48 h, cancer cell line), 14.8 ± 1.42 µM; in the data set on HUVEC cells (MTT assay, immortalized cells), not below 75 µM; with HEK-293F cells (MTT assay, immortalized cells) it was not below 75 µM. In addition, the IC50 in the data set on CHO cells (MTT assay, immortalized cells) is not below 75 µM. For the same compound, the inhibition at 200 µM in the data set on MCF−7 cells [2] (MCF7, MTT assay) was found to be 99.6 ± 0.4%. Besides, the “tumor growth inhibition rate” value in the data set with 4T1 breast cancer tumor (60 mg/kg intraperitoneally every three days, 4T1 tumor) is listed as 61.8%. Also, in the data set with 4T1 breast cancer tumor (MA−24 60 mg/kg i.p. every three days, 4T1 tumor), the lung metastasis result is “reduced lung metastasis”. The “Ki67 expression / tumor cell proliferation in tumors” value in the data set on 4T1 breast cancer tumor (setting [9]) is given as “moderate reduction in Ki67 expression”. In the data set on 4T1 breast cancer tumor, the “body weight compared to the control group” value is listed as “no statistically significant differences”. The “type of inhibition on MTH1 with respect to dGTP” value on MTH1 [3] is listed as “competitive inhibition type”. Moreover, on MTH1 [4], the “thermal stabilization of MTH1 (CETSA)” value is “prominent thermal stabilization”. The “DNA strand breaks (comet assay)” value in the data set with MCF−7 cells [5] is reported as “significantly increased DNA strand breaks”. In the data set on MCF−7 cells [6] (30 μM), the “expression of cleaved-caspase 3 and cleaved PARP” value was “upregulation of cleaved-caspase 3 and cleaved PARP”. Moreover, the “expression of p38” value in the data set with MCF−7 cells [6] was “significantly reduce the expression of p38”.
As to `CNc1cc(NCCc2ccc(F)cc2)nc(N)n1` [MA−25], the IC50 turned out to be 0.01374 ± 0.0001 µM at MTH1 [1] (setting [10]) and 82.3 ± 1.02 µM in the data set with MCF−7 cells [2] (MCF7, MTT assay, 48 h). In the data set with MCF−7 cells [2] (MCF7, MTT assay), the inhibition at 200 µM came to 100 ± 0.1%.
As to `CNc1cc(-c2cccc(Cl)c2Cl)nc(N)n1` [TH287, reference compound], the IC50 is 0.00316 ± 3e-05 µM against MTH1 [1]; 3.55 ± 0.27 µM with MCF−7 cells [2] (MCF7, 48 h); 1.92 ± 0.34 µM in the data set on MDA-MB-231 cells (MDA-MB-231, 48 h); 5.9 ± 1.02 µM with 4T1 cells (4T1, 48 h); not below 25 µM in the data set with HUVEC cells; not below 25 µM in the data set with HEK-293F cells. In the data set with CHO cells, the IC50 is not below 25 µM. Besides, in the data set on 4T1 breast cancer tumor (200 mg/kg intraperitoneally every three days, 4T1 tumor), the “tumor growth inhibition rate” value is 20.4%. For the same compound, the “body weight compared to the control group” value in the data set on 4T1 breast cancer tumor was “no statistically significant differences”. Also, at MTH1 [3], the “type of inhibition on MTH1 with respect to dGTP” value is recorded as “competitive inhibition type”. In addition, the “thermal stabilization of MTH1 (CETSA)” value on MTH1 [4] was “increase the thermal stability of the MTH1 protein”. Further, the “expression of p38” value in the data set with MCF−7 cells [6] is “significantly reduce the expression of p38”. In addition, the “blood drug concentration at 2, 3, and 4 h” value in [7] (5mg/kg, 2, 3, and 4 h) is recorded as “below the detection limit”. Besides, the “blood drug concentration at 1 h” value in [7] (5mg/kg, 1 h) is 1000 nM. The “stability in vitro compared to TH588” value in data set [8] is listed as “poorer stability”.
